{
  "source": "patent US10111865B2",
  "about": "(priority 2015, dated 2018)",
  "key": {"[1]": {"assay_type": "in vivo, human", "description": "There was a washout of 4 days between each treatment period.\nThe study included healthy, male and female subjects between 18 and 45 years of age within 30% of ideal weight. The subjects in Part 1 of the study could be of either gender, but within Part 2 of the study there had to be at least 4 subjects of each gender."}, "[2]": {"conditions": "human, in vivo; for residual effect on Choice Reaction Time / residual effect on Critical Flicker Fusion: po"}, "[3]": {"test": "Driving performance (real driving on the road) and cognitive/psychomotor test battery after evening or middle-of-the-night dosing (Example 3)", "assay_type": "in vivo, human", "conditions": "for effect on memory test, body sway, DSST or critical tracking: cognitive and psychomotor test battery before driving test; for effect on driving: driving test at 9 am", "description": "The study participants included healthy, male and female subjects between 21 and 45 years of age, with a valid drivers license for at least 3 years.\nFollowing a cognitive and psychomotor test battery, the driving test started at 9 am and lasted for one hour."}, "[4]": {"conditions": "human, in vivo"}, "[5]": {"conditions": "three-month efficacy study, insomnia; cited from earlier work"}, "[6]": {"test": "Daytime performance after 5-hour sleep restriction, 4-night placebo-controlled study in healthy adults (Example 4)", "assay_type": "in vivo, human", "conditions": "15 mg", "procedure": "The study included a 2-night single-blind placebo run-in period, a 4-night double-blind treatment period during which sleep was restricted to 5 hours and a 2-night single-blind placebo run-out period. The study included healthy male and female volunteers 18 to <55 years of age.\n2-night run-in period: All patients received placebo\n2-night run-out period: All patients received placebo\nThe primary endpoints included observations based on the Multiple Sleep Latency Test (MSLT) and Slow Wave Sleep (SWS) assessment."}, "[7]": {"conditions": "middle-of-the-night administration (4 am; gaboxadol 15 mg, zolpidem 10 mg)"}},
  "note": "Read-outs that look alike come from different tables or passages of the source.",
  "data": [
    {"smiles": "Oc1noc2c1CCNC2", "note": "[gaboxadol, 4,5,6,7-tetrahydroisoxazolo [5,4-c]pyridine-3-ol]", "values": [
      {"measurement": "serious adverse experiences", "setting": "[1]; both parts of the study", "value": "no serious adverse experiences"},
      {"measurement": "tolerability", "setting": "[1]; single dose intravenous 5 and 10 mg", "value": "generally well tolerated"},
      {"measurement": "tolerability", "setting": "[1]; single dose oral 2.5 to 20 mg", "value": "generally well tolerated"},
      {"measurement": "residual effects on other measurements (MSLT, DSST, Tracking, Memory tests, Body Sway, Leeds Sleep Evaluation Questionnaire)", "setting": "[2]", "value": "did not show any signs of residual effects"},
      {"measurement": "residual effect on Choice Reaction Time", "setting": "[2]", "value": "did not show residual effect"},
      {"measurement": "residual effect on Critical Flicker Fusion", "setting": "[2]", "value": "did not show residual effect"},
      {"measurement": "effect on memory test, body sway, DSST or critical tracking", "setting": "[3]", "value": "no effect"},
      {"measurement": "tolerability", "setting": "[3]; evening and middle-of-the-night dose 15 mg", "value": "well tolerated"},
      {"measurement": "effect on driving compared with blood alcohol", "setting": "[3]; evening dose 15 mg", "value": "less than the effect observed at a 0.05% blood alcohol concentration"},
      {"measurement": "most frequent adverse events", "setting": "[3]; evening treatment 15 mg", "value": "headache and somnolence"},
      {"measurement": "effect on driving", "setting": "[3]; [7]", "value": "clinically relevant impairing effect"},
      {"measurement": "most frequent adverse events", "setting": "[3]; middle-of-the-night treatment 15 mg", "value": "dizziness, nausea and somnolence"},
      {"measurement": "Oral clearance (CL/F) compared with clearance after intravenous administration", "setting": "[4]", "value": "of similar magnitude"},
      {"measurement": "AUC0-inf, dependence on dose", "setting": "[4]; iv", "value": "increased with increasing dose"},
      {"measurement": "Cmax, dependence on dose", "setting": "[4]; iv", "value": "increased with increasing dose"},
      {"measurement": "other parameters (CL, t1/2, Vss, fe, and CLR), dependence on dose", "setting": "[4]; iv", "value": "independent of dose"},
      {"measurement": "steady-state volume of distribution (Vss)", "setting": "[4]; iv", "value": "moderate"},
      {"measurement": "systemic clearance (CL)", "setting": "[4]; iv", "value": "moderate"},
      {"measurement": "other parameters (CL/F, tmax, t1/2, fe, and CLR), dependence on dose", "setting": "[4]; po", "value": "independent of dose"},
      {"measurement": "AUC0-inf, dependence on dose", "setting": "[4]; po, 20 mg", "value": "increased with increasing dose"},
      {"measurement": "Cmax, dependence on dose", "setting": "[4]; po, 20 mg", "value": "increased with increasing dose"},
      {"measurement": "effects in sleep onset and sleep maintenance", "setting": "[5]", "value": "failed to show significant effects"},
      {"measurement": "MSLT, average difference to placebo (longer)", "setting": "[6]; last two Sleep Restriction days, p=0.047, 1 sided", "value": 2.01, "unit": "min"},
      {"measurement": "Karolinska Sleepiness Score (KSS), average difference to placebo (less)", "setting": "[6]; last two Sleep Restriction days, p=0.058, 1 sided, LDA model", "value": 0.68},
      {"measurement": "SWS, average difference to placebo (longer)", "setting": "[6]; last two Sleep Restriction nights, p<0.001, 1 sided", "value": 20.53, "unit": "min"},
      {"measurement": "biophysiological measures of stress (heart rate variability, cortisol levels, catecholamine levels, body temperature) vs placebo", "setting": "[6]; sleep restriction", "value": "no differences"},
      {"measurement": "neurocognitive battery effect sizes (daytime performance)", "setting": "[6]; sleep restriction", "value": "no strong evidence that gaboxadol improves daytime performance"}
    ]},
    {"smiles": "Cc1ccc(-c2nc3ccc(C)cn3c2CC(=O)N(C)C)cc1", "note": "[zolpidem]", "values": [
      {"measurement": "effect on driving", "setting": "[3]; [7]", "value": "numerically greater effect"}
    ]},
    {"smiles": "CCN(CC)CCN1C(=O)CN=C(c2ccccc2F)c2cc(Cl)ccc21", "note": "[Flurazepam]", "values": [
      {"measurement": "residual effect on Choice Reaction Time", "setting": "[2]", "value": "showed significant effect"},
      {"measurement": "residual effect on Critical Flicker Fusion", "setting": "[2]", "value": "showed significant effect"}
    ]},
    {"smiles": "CN1CCN(C(=O)OC2c3nccnc3C(=O)N2c2ccc(Cl)cn2)CC1", "note": "(centres unmarked) [zopiclone]", "values": [
      {"measurement": "effect on memory test, body sway, DSST or critical tracking", "setting": "[3]", "value": "had effect on several of these tests"},
      {"measurement": "effect on driving", "setting": "[3]; evening dose (gaboxadol 15 mg, zopiclone 7.5 mg)", "value": "numerically greater effect"}
    ]}
  ]
}
